The subject of experiment [1] is Wnt pathway (Sp5-Luc reporter, TCF/LEF binding sites) in SW480 colon carcinoma cells. The experiment can be described thus: Screening assay for Wnt activity: Sp5-Luc reporter gene assay.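 Note: firefly luciferase luminescence read in stably transduced SW480 cells carrying the Sp5 promoter reporter with eight TCF/LEF sites, compounds given in 0.1% DMSO final.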 Type of experiment: cell-based, human. The following applies: Homo sapiens; Sp5-Luc reporter, SW480 cells, 36 to 48 hours. A general note: Reporter assays use an easily measured gene product as a stand-in for the process of interest.
Protocol: The screening assay for Wnt activity is described as follows.
Following incubation, 15 μl of BriteLite Plus luminescence reagent (Perkin Elmer) was added to each well of the 384-well assay plates. The plates were placed on an orbital shaker for 2 min and then luminescence was quantified using the Envision (Perkin Elmer) plate reader.

Experiment [2] concerns the target recombinant DYRK1A kinase (Homo sapiens (Human), UniProt Q13627). The experiment can be described thus: DYRK1A kinase assay (Ser/Thr 18 peptide Z-lyte FRET).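 Note: Read-out is the coumarin to fluorescein emission ratio, referenced to unphosphorylated (0%) and phosphorylated (100%) Ser/Thr 18 peptide controls, values from dose-response curves by non-linear regression.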 It is filed as biochemical. The conditions noted are these: 30 μM ATP, 1 h room temperature.
Experiment [3] concerns the target recombinant GSK3β kinase (Homo sapiens (Human), UniProt P49841). The experiment is described as follows: GSK3β kinase assay (Ser/Thr 09 peptide Z-lyte FRET).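 Note: kinase activity read as coumarin to fluorescein emission ratio, 11-point threefold dilutions from 10 µM to 0.0003 µM in duplicate, unphosphorylated and phosphorylated peptide as 0% and 100% controls.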 It is filed as biochemical. The conditions noted are these: 46 μM ATP, 1 h room temperature.
Experiment [4] deals with Tau phosphorylation at Ser396 (pSer396). The experiment is described as follows: Tau phosphorylation assay (pSer396 ELISA / western blot) in SH-SY5Y cells.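 Note: EC50 for reduction of Tau pSer396 in lysed cells, measured by colorimetric ELISA or chemiluminescent western blot, both using the same pSer396 antibody.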 Type of experiment: cell-based, human. The following applies: Homo sapiens, read-out: pSer396 Tau EC50. A general note: ELISA stands for enzyme-linked immunosorbent assay.
Experiment [5] deals with SW480 colon carcinoma cells. The experiment is described as follows: Cell viability assay (CellTiter-Glo). Type of experiment: cell-based, human. The following applies: Homo sapiens; for EC50: 96 h, SW480 cells, CellTiter-Glo, four days incubation. Background: ATP-based viability assays read luminescence as a measure of living cells.
Experiment [6] has as its system α-smooth muscle actin (αSMA) positive LL29 cells. The experiment is described as follows: Inhibition of fibrotic process: αSMA in TGF-β1 treated primary human fibroblasts from IPF patients.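 For all read-outs here: controls were TGF-β1 stimulated wells with DMSO vehicle (positive) and cells given DMSO alone (negative), cultured in F12 medium with 1% fetal bovine serum.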 Type of experiment: cell-based. The following applies: Homo sapiens, Fibroblast; for EC50: 96 h, Table 8, LL29 fibroblasts from IPF patients, TGF-β1 20 ng/mL, 4 days, dose-response 10 μM to 0.94 nM; for inhibition at 10 µM: read-out: percent value in parentheses beside EC50 >10 μM.

Experiment [7] relates to IL-6. The experiment is described as follows: IL-6 inhibition in LPS-stimulated human peripheral blood mononuclear cells (HTRF).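 For all read-outs here: IL-6 detected by HTRF with an XL665- and Cryptate-labelled anti-IL-6 antibody pair, samples run in duplicate, EC50 obtained from a four-parameter Levenberg-Marquardt curve fit.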 It is filed as cell-based. The following applies: Homo sapiens, PBMC; for EC50: Table 9, huPBMCs, LPS 50 ng/mL, 22 hours, dose-response starting from 10 μM; for inhibition at 10 µM: read-out: percent value in parentheses beside EC50 >10 μM.
Protocol: After 22 hour incubation, a mixture of anti-IL6 XL665 and anti-IL-6 Cryptate diluted in reconstitution buffer (Catalog #62IL6PEC, Cisbio Inc., Bedford, Mass.) was added to each well. […] All samples were processed in duplicate. […] EC50 was determined using software generated by Dotmatics Limited (Windhill Bishops Stortford Herts, UK) using the Levenberg-Marquardt 4 parameter fitting procedure with finite different gradients.
Where [8] appears, read: SH-SY5Y cells, overnight (16-18 h) exposure.

Where two headings read alike, the source gives them in different places.

Sequence of recombinant GSK3β kinase (P49841 whole entry): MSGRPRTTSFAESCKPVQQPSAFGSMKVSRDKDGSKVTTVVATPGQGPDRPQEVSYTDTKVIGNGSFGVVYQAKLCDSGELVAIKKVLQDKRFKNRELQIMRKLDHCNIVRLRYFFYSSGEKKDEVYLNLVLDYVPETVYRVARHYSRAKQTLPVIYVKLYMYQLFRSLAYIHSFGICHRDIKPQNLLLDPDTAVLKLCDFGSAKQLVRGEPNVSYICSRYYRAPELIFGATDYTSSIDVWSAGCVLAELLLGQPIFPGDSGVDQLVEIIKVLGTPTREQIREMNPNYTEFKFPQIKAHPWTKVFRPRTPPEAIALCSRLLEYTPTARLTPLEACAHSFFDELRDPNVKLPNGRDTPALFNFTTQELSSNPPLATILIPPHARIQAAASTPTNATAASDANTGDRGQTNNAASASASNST

With `Cn1cc(-c2ccc3cnc(NC(=O)CN4CCC(F)CC4)cc3c2)cn1` [Compound 116, 2-(4-Fluoropiperidin-1-yl)-N-(6-(1-methyl-1H-pyrazol-4-yl)isoquinolin-3-yl)acetamide], the concentration giving a half-maximal response (EC50) (in general, the concentration needed to bring the measured effect to its halfway point) in experiment [1] is 7100 nM; in experiment [2], 4.3 nM; in experiment [3], 24 nM; in experiment [4] (setting [8]), 870 nM; in experiment [5], 6500 nM; in experiment [6], 830 nM. Further, the response in experiment [7] was half-maximal at 1330 nM (EC50).

`CN1CCN(CC(=O)Nc2cc3cc(-c4cnn(C)c4)ccc3cn2)CC1` [Compound 118, N-(6-(1-Methyl-1H-pyrazol-4-yl)isoquinolin-3-yl)-2-(4-methylpiperazin-1-yl)acetamide]: the EC50 in experiment [1] amounted to 3600 nM; in experiment [2] it was 9.6 nM; in experiment [3] it was 79 nM; in experiment [4] (setting [8]), 1200 nM; in experiment [5], 5940 nM; in experiment [6] it was 821 nM. This compound also gave an EC50 in experiment [7] of 3610 nM.

Turning to `Cc1ncc(-c2ccc3cnc(NC(=O)C4CC4)cc3c2)n1C` [Compound 119, N-(6-(1,2-Dimethyl-1H-imidazol-5-yl)isoquinolin-3-yl) cyclopropanecarboxamide], the EC50 in experiment [1] was found to be 1060 nM; in experiment [2], 2.9 nM; in experiment [3], 7 nM; in experiment [4] (setting [8]) it was 418 nM; in experiment [5], 525 nM; in experiment [6] it was 1410 nM. Further, it took 1200 nM to reach a half-maximal effect in experiment [7] (EC50).

As for `Cc1ncc(-c2ccc3cnc(NC(=O)C4CCC(F)(F)CC4)cc3c2)n1C` [Compound 121, N-(6-(1,2-Dimethyl-1H-imidazol-5-yl)isoquinolin-3-yl)-4,4-difluorocyclohexanecarboxamide], the EC50 stood at 3500 nM in experiment [1]; 3.4 nM in experiment [2]; 53 nM in experiment [3]; 1030 nM in experiment [4] (setting [8]); 4310 nM in experiment [5]; 1080 nM in experiment [6]. Also, the concentration for a half-maximal effect (EC50) in experiment [7] came out at 3650 nM.

As for `Cc1ncc(-c2ccc3cnc(NC(=O)[C@@H]4CCCO4)cc3c2)n1C` [Compound 188, (S)—N-(6-(1,2-Dimethyl-1H-imidazol-5-yl)isoquinolin-3-yl)tetrahydrofuran-2-carboxamide], the concentration for a half-maximal effect (EC50) in experiment [1] was above 10000 nM; in experiment [2] it was 28.6 nM; in experiment [3] it was 265 nM; in experiment [4] (setting [8]) it was 4220 nM; in experiment [5], above 10000 nM; in experiment [6], above 10000 nM. The compound further registered an EC50 in experiment [7] of 9980 nM. Further, the inhibition at 10 µM in experiment [6] was 12.4%.

As for `CN1CCC(C(=O)Nc2cc3cc(-c4ccn(C)n4)ccc3cn2)CC1` [Compound 264, 1-Methyl-N-(6-(1-methyl-1H-pyrazol-3-yl)isoquinolin-3-yl)piperidine-4-carboxamide], the EC50 in experiment [1] was above 10000 nM; in experiment [2], 348 nM; in experiment [3], above 10000 nM; in experiment [4] (setting [8]), above 10000 nM; in experiment [5] it was 8750 nM; in experiment [6] it was above 10000 nM. In experiment [7], this compound returned a half-maximal effective concentration (EC50) above 10000 nM. For the same compound, the inhibition at 10 µM in experiment [6] turned out to be 11.7%; in experiment [7], 4%.

With `O=C(Nc1cc2cc(-c3cnc4n3CCNC4)ccc2cn1)C1CC1` [Compound 265, N-(6-(5,6,7,8-Tetrahydroimidazo[1,2-a]pyrazin-3-yl)isoquinolin-3-yl) cyclopropanecarboxamide], the EC50 amounted to 1240 nM in experiment [1]; 3.7 nM in experiment [2]; 7 nM in experiment [3]; 656 nM in experiment [4] (setting [8]); 4350 nM in experiment [5]; 2560 nM in experiment [6]. The same compound came in with an EC50 in experiment [7] of 3000 nM.

Turning to `CN1CCn2c(-c3ccc4cnc(NC(=O)C5CC5)cc4c3)cnc2C1` [Compound 266, N-(6-(7-Methyl-5,6,7,8-tetrahydroimidazo[1,2-a]pyrazin-3-yl)isoquinolin-3-yl)cyclopropanecarboxamide], the EC50 in experiment [1] came out at 2440 nM; in experiment [2], 17.4 nM; in experiment [3], 38 nM; in experiment [4] (setting [8]), 1200 nM; in experiment [5], 6320 nM; in experiment [6], 697 nM. In experiment [7], this compound gave a half-maximal effective concentration (EC50) of 1930 nM.

With `CN1CCn2ncc(-c3ccc4cnc(NC(=O)C5CC(F)(F)C5)cc4c3)c2C1` [Compound 267, 3,3-Difluoro-N-(6-(5-methyl-4,5,6,7-tetrahydropyrazolo[1,5-a]pyrazin-3-yl)isoquinolin-3-yl)cyclobutanecarboxamide], the concentration giving a half-maximal response (EC50) in experiment [1] amounted to 1380 nM; in experiment [2], 29.4 nM; in experiment [3] it was 39 nM; in experiment [4] (setting [8]), 555 nM; in experiment [5], 2020 nM; in experiment [6], 590 nM. Besides, in experiment [7], the EC50 came out at 9410 nM.

Consider `Cc1ncc(-c2ccc3cnc(NC(=O)C4CC(F)(F)C4)cc3c2)n1C` [Compound 268, N-(6-(1,2-Dimethyl-1H-imidazol-5-yl)isoquinolin-3-yl)-3,3-difluorocyclobutanecarboxamide], for which the EC50 in experiment [1] came to 2070 nM; in experiment [2], 5.8 nM; in experiment [3], 17 nM; in experiment [4] (setting [8]), 478 nM; in experiment [5] it was 2770 nM; in experiment [6], 73 nM. Moreover, in experiment [7], the concentration giving a half-maximal response (EC50) amounted to 8170 nM.

Turning to `Cn1nccc1-c1ccc2cnc(NC(=O)C3CCN(CCC(F)(F)F)CC3)cc2c1` [Compound 270, N-(6-(1-Methyl-1H-pyrazol-5-yl)isoquinolin-3-yl)-1-(3,3,3-trifluoropropyl) piperidine-4-carboxamide], the half-maximal effective concentration (EC50) in experiment [1] is above 10000 nM; in experiment [2], 952 nM; in experiment [3], 5310 nM; in experiment [4] (setting [8]), above 10000 nM; in experiment [5], above 10000 nM; in experiment [6] it was above 10000 nM. In experiment [7], this compound showed a concentration for a half-maximal effect (EC50) of 9980 nM. In experiment [6], the inhibition at 10 µM came out at 11.4%.

On to `CC(C)CN1CCN(CC(=O)Nc2cc3cc(-c4cnn(C)c4)ccc3cn2)CC1` [Compound 272, 2-(4-Isobutylpiperazin-1-yl)-N-[6-(1-methylpyrazol-4-yl)-3-isoquinolyl]acetamide], for which the EC50 turned out to be 3750 nM in experiment [1]; 14 nM in experiment [2]; 105 nM in experiment [3]; 1660 nM in experiment [4] (setting [8]); 5870 nM in experiment [5]; 2540 nM in experiment [6]. Besides, a half-maximal response in experiment [7] (EC50) required 3100 nM.

Regarding `Cn1cc(-c2ccc3cnc(NC(=O)CN4CC(C)(C)C4)cc3c2)cn1` [Compound 273, 2-(3,3-Dimethylazetidin-1-yl)-N-[6-(1-methylpyrazol-4-yl)-3-isoquinolyl]acetamide], the EC50 in experiment [1] was 1510 nM; in experiment [2] it was 10.7 nM; in experiment [3], 48 nM; in experiment [4] (setting [8]) it was 492 nM; in experiment [5], 1180 nM; in experiment [6] it was 515 nM. The compound further came in with a concentration for a half-maximal effect (EC50) in experiment [7] of 842 nM.

For `Cn1cc(-c2ccc3cnc(NC(=O)CN4CC[C@@H](F)C4)cc3c2)cn1` [Compound 274, 2-[(3R)-3-fluoropyrrolidin-1-yl]-N-[6-(1-methylpyrazol-4-yl)-3-isoquinolyl]acetamide], the EC50 stood at 3720 nM in experiment [1]; 5.9 nM in experiment [2]; 25 nM in experiment [3]; 535 nM in experiment [4] (setting [8]); 4050 nM in experiment [5]; 195 nM in experiment [6]. The same compound had a concentration for a half-maximal effect (EC50) in experiment [7] of 3220 nM.

Turning to `Cn1cncc1-c1ccc2cnc(NC(=O)CN3CCCCC3)cc2c1` [Compound 275, N-[6-(3-methylimidazol-4-yl)-3-isoquinolyl]-2-(1-piperidyl) acetamide], the EC50 stood at 1920 nM in experiment [1]; 4.7 nM in experiment [2]; 115 nM in experiment [3]; 232 nM in experiment [4] (setting [8]); 1280 nM in experiment [5]; 431 nM in experiment [6]. Further, the half-maximal effective concentration (EC50) in experiment [7] is 1140 nM.

On to `Cn1cc(-c2ccc3cnc(NC(=O)CN4CCCCC4)cc3c2)nn1` [Compound 276, N-(6-(1-methyl-1H-1,2,3-triazol-4-yl)isoquinolin-3-yl)-2-(piperidin-1-yl) acetamide], for which the concentration for a half-maximal effect (EC50) in experiment [1] was 5180 nM; in experiment [2], 5.1 nM; in experiment [3], 6 nM; in experiment [4] (setting [8]) it was 150 nM; in experiment [5], above 10000 nM; in experiment [6], 336 nM. In addition, the half-maximal effective concentration (EC50) in experiment [7] came out at 2920 nM. In addition, in experiment [5] (SW480, read-out: percent inhibition at 10 μM), the inhibition at 10 µM came to 29.6%.

As to `Cn1cc(-c2ccc3cnc(NC(=O)C4C(C)(C)C4(C)C)cc3c2)nn1` [Compound 277, 2,2,3,3-Tetramethyl-N-(6-(1-methyl-1H-1,2,3-triazol-4-yl)isoquinolin-3-yl) cyclopropane-1-carboxamide], the EC50 in experiment [1] came to 5260 nM; in experiment [2] it was 2.3 nM; in experiment [3], 104 nM; in experiment [4] (SH-SY5Y) it was 1080 nM; in experiment [5], 1400 nM; in experiment [6], 245 nM. Also, the half-maximal effective concentration (EC50) in experiment [7] was above 10000 nM. The inhibition at 10 µM in experiment [7] worked out at 4%.

Values taken from patent US10287267B2, “Isoquinolin-3-yl carboxamides and preparation and use thereof” (Samumed, LLC, priority 2016, dated 2019).
